Data from patent US20040063660A1, “Diasteriomers of S-adenosyl-l-methionine and uses thereof” (priority 2000, published 2004).

Assays:
[1] = suggested; control of morning sickness during pregnancy; cited from earlier work
[2] = tested on: beta-adrenergic; conditions: L-form vs D-enantiomer; cited from earlier work
[3] = tested on: nucleolar 2-0-methyltransferase; conditions: vs (R,S) diasteriomer; cited from earlier work
[4] = tested on: patients with major depressive episode (DSM-III); experiment: open, non-blind study of depression, Hamilton Rating Scale for Depression; assay type: in vivo, human; conditions: 400 mg twice daily, 14 days
Experimental: (S,S)-S-adenosyl-l-methionine p-toluene sulfonate 400 mg was administered twice daily in an open, non-blind study of 10 volunteers who gave informed consent. All patients had normal results on pre-study medical examinations, including laboratory examinations. Patients received 400 mg of (S,S)-S-adenosyl-l-methionine p-toluene sulfonate in an enteric-coated tablet form twice daily for 14 days or until remission of depression symptoms. The 10 patients satisfied the DSM-III criteria for a major depressive episode. Patients' symptoms were monitored daily using the Hamilton Rating Scale for Depression. 9 patients completed the study. […] One patient had no change at all.

[5] = tested on: alcoholic liver cirrhosis; conditions: oral, vs placebo treated group; cited from earlier work
[6] = tested on: Alzheimer's disease; conditions: preliminary study; cited from earlier work
[7] = tested on: brain oxidative status; conditions: chronically administered, rats; cited from earlier work
[8] = tested on: liver glutathione; conditions: oral, patients with and without liver disease; cited from earlier work
[9] = tested on: intrahepatic cholestasis; conditions: oral, intrahepatic cholestasis patients; cited from earlier work
[10] = tested on: primary fibromyalgia; conditions: oral, short-term trial; cited from earlier work
[11] = tested on: tumor necrosis factor alpha; conditions: cited from earlier work
[12] = tested on: human erythrocytes; conditions: incubated in vitro with human erythrocytes; cited from earlier work
[13] = tested on: migraines; conditions: human, in vivo; cited from earlier work
[14] = tested on: total parenteral nutrition-induced cholestasis; conditions: rat; cited from earlier work
[15] = tested on: peripheral occlusive arterial disease; conditions: patients with peripheral occlusive arterial disease; cited from earlier work
[16] = tested on: muscarinic receptors; conditions: rats treated chronically; cited from earlier work
[17] = tested on: memory; conditions: treated vs age matched untreated animals, old and young; cited from earlier work
[18] = tested on: methyltransferases; conditions: other methyltransferases; cited from earlier work
[19] = tested on: S-adenosyl-l-methionine-dependent methyltransferases; conditions: cited from earlier work
[20] = enteric-coated tablet, 9 patients completed

For `O=C1CCC(N2C(=O)c3ccccc3C2=O)C(=O)N1` (single isomer, unassigned) [D-enantiomer of thalidomide, thalidomide], the “safety and effect of thalidomide enantiomer in pregnancy” value [1] is given as “safe and effective sedative”.
For `CC(C)NCC(O)COc1cccc2ccccc12` (centres unmarked) [propranolol], the “potency relative to the D-enantiomer” value [2] is listed as 100 times.
For `C[S@@+](CC[C@H](N)C(=O)O)C[C@H]1O[C@@H](n2cnc3c(N)ncnc32)[C@H](O)[C@@H]1O` [(S,S)-S-adenosyl-l-methionine], the “tightness of enzyme binding relative to (R,S)-S-adenosyl-l-methionine” value [3] is given as 10 fold.
In the case of `C[S@@+](CC[C@H](N)C(=O)O)C[C@H]1O[C@@H](n2cnc3c(N)ncnc32)[C@H](O)[C@@H]1O.Cc1ccc(S(=O)(=O)[O-])cc1` [(S,S)-S-adenosyl-l-methionine p-toluene sulfonate], the “side effects (reported, laboratory or physical examination)” value [4] is reported as “No side effects were noted or reported”, the “patients who completed the trial and improved (Hamilton Rating Scale for Depression)” value [4, 20] is reported as “Eight of the nine” and the “patients with no change” value [4, 20] is reported as “One”.
In the case of `C[S+](CC[C@H](N)C(=O)[O-])C[C@H]1O[C@@H](n2cnc3c(N)ncnc32)[C@H](O)[C@@H]1O` (stereo partly drawn) [S-adenosyl-l-methionine], the “overall mortality and/or progression to liver transplant” value [5] is listed as 12%, the “cognitive effect in patients with Alzheimer's disease” value [6] is listed as “cognitive improvement” and the “oxidative status in the brain” value [7] is listed as “enhancing anti-oxidative defenses”. The liver glutathione levels [8] was “increases in liver glutathione levels”, the “pruritus and biochemical markers of cholestasis” value [9] was “improvements in both the pruritus as well as the biochemical markers of cholestasis” and the “improvement in primary fibromyalgia” value [10] was “significant improvement”. The “amount of tumor necrosis factor alpha secreted by cells” value [11] was “decrease the amount”, the “damage caused by tumor necrosis factor alpha” value [11] was “attenuates the damage” and the “ATP within the erythrocyte” value [12] was “increases ATP within the cell”. The benefit in migraines [13] was “found to be of benefit”, the “cholestasis resulting from total parenteral nutrition” value [14] was “able to prevent cholestasis” and the blood viscosity [15] was “reduce blood viscosity”. The “number of muscarinic receptors in the brain” value [16] was “increase the number of muscarinic receptors” and the “performance in eight arm radical maze test versus untreated animals” value [17] was “out-perform”.
In the case of `C[S@@+](CC[C@@H](N)C(=O)O)C[C@H]1O[C@@H](n2cnc3c(N)ncnc32)[C@H](O)[C@@H]1O` [(R,S)-S-adenosyl-l-methionine], the “binding relative to (S,S)-S-adenosyl-l-methionine” value [18] is listed as “to the same extent” and the “inhibition of enzyme-catalyzed transmethylation reactions” value [19] is listed as “potent inhibitor”.
For `O=C1CCC(N2C(=O)c3ccccc3C2=O)C(=O)N1` (single isomer, unassigned) [L-enantiomer, thalidomide], the “safety and effect of thalidomide enantiomer in pregnancy” value [1] is given as “potent teratogen”.
